{
  "source": "paper PMC10721329",
  "about": "“Quisinostat is a brain-penetrant radiosensitizer in glioblastoma” (JCI Insight, 2023)",
  "key": {"[1]": {"tested_on": "orthotopic GB126 tumors", "assay": "End-stage immunoblot of orthotopic GB126 tumors (H3K9/14ac, H3K27ac)", "assay_type": "in vivo, athymic nude mice", "settings": "endpoint PDX tumors, individual mice", "experimental": "All mice included in the survival study were processed for end-point PK and PD analyses once moribund. Plasma, tumor, and contralateral brain tissues were harvested 3 hours after dosing with 10 mg/kg QST, allowing for direct comparison of long-term treatment with the PK-PD data collected from acute (1-week) treatment with QST or combination therapy (Figure 8A). […] There were no significant differences in total or unbound drug concentrations in tumor or brain tissue between the monotherapy or combination therapy cohorts (Figure 8, E and F). Immunoblot analysis of dissected tumor samples confirmed that QST induced substantial histone H3 hyperacetylation in brain tumors, compared with untreated animals, consistent with an in vivo on-target effect (Figure 9, A and B). […]\n4). Protein concentrations from whole-cell extracts were determined using the Bradford Protein Assay (ThermoFisher Scientific). Equal amounts of protein (10-40 μg/lane) were loaded onto 10% or 12.5% sodium dodecyl sulfate–polyacrylamide gel electrophoresis gels and transferred to a polyvinylidene fluoride membrane (Millipore-Sigma).\nCellular protein from frozen tissue of non–tumor-bearing mouse brains, tumor-bearing mouse brains, and flank tumors were homogenized in a prechilled glass tissue grinder (VWR) with RIPA lysis buffer containing protease and phosphatase inhibitors (ThermoFisher Scientific), with 500 uL of RIPA buffer for 10 mg of tissue. Once homogenized, the tissue lysates were kept on ice for 30 minutes and vortexed every 10 minutes. The samples were then centrifuged at 15,000 rpm for 10 minutes at 4 °C to collect the protein lysates.\nMembranes were blocked with 5% nonfat milk for 1 hour at room temperature and incubated overnight with primary antibody at 4 °C. Primary antibodies used were rabbit anti-p21 […]\nSignaling Technologies, 9677), mouse anti-Histone H3 (1:1000, Cell Signaling 14269), mouse"}, "[2]": {"assay": "Stability in mouse plasma with esterase inhibitors (BNPP, PMSF, DTNB)", "assay_type": "in vitro ADME", "settings": "37 C, QST conc 500nM", "experimental": "Hydroxamic acid–based compounds have been reported to display poor stability and high plasma clearance due to the presence of arylesterases and carboxylesterases in rodent blood ([34]). Therefore, we measured the stability of QST in mouse plasma and brain to determine whether drug degradation occurred during our sample preparations and equilibrium dialyses for the determination of unbound drug level (performed at 37°C). […] QST degradation was also observed in mouse brain homogenate (Figure 6B). However, perfusion of mice before brain collection prevented rapid drug degradation in the brain matrix. […] Degradation of QST can also be constrained if plasma and brain samples are processed at 4°C (Supplemental Figure 4A). All subsequent sample preparations were therefore performed on ice-cold baths to avoid degradation of QST in our PK analyses. […] The observed stability is probably due to the absence of esterases in human matrices, which are responsible for degradation of QST ([34]). Because we employed QST in several in vitro studies (Figures 1–4), the stability of the molecule was also tested in the cell media used to culture GSCs (neurobasal medium; see Methods).\nStability Study in Mouse Plasma, Mouse Brain, Human Plasma, Human Brain, and Neural […]\nThe stability of QST was determined in BALB/c mouse plasma, male nude athymic perfused and nonperfused mouse brain homogenate (1:9 w/v of PBS; pH 7.4), human brain (obtained from VRL Eurofins) homogenate (1:4 w/v of PBS; pH 7.4), pooled human plasma (Innovative Research), and neurobasal media. QST stock solutions (1 mM) were prepared in acetonitrile, subsequently diluted in a 40% methanol mixture, and added t o the matrices to make final concentrations of 100 nM or 10 nM. Then 50 or 30 µL of either plasma or brain homogenate containing QST were aliquoted into 1.5-mL microcentrifuge tubes (Eppendorf) and were incubated at either 4 °C or 37 °C for 0, 2, 4, 6, 12, or 24 hours (n = 3 at each time point).\nThe stability of QST in mouse plasma was also tested at 0, 2, 8, 16, or 24 hours (n = 3 at each time point) in the presence of esterase inhibitors: 0.25 mM BNPP, 1mM dithiobis(2-nitrobenzoic acid) (DTNB), or 1.25 mM phenylmethylsulfonyl fluoride (PMSF). Plasma and brain homogenate samples were stored at −80 °C until LC-MS/MS analysis. […]\nSupplemental Figure 4. Stability of QST in mouse plasma is improved upon addition of esterase inhibitors. (A) Stability of QST (100 nM) in mouse plasma and mouse brain homogenate when sample preparation is performed at 4 °C. (B) Stability of QST (500 nM) in mouse plasma spiked with 3 different esterase inhibitors: 0.25 mM bis(p-nitrophenyl) phosphate (BNPP), 1.25 mM phenylmethylsulfonyl fluoride (PMSF), and 1 mM dithiobis(2-nitrobenzoic acid) (DTNB) over the course of 24 hours at 37 °C. (C) Stability of QST (10 nM and 100 nM) in neurobasal cell culture medium over the course of 24 hours at 37 °C."}, "[3]": {"assay": "Body weight / tolerability in non-tumor-bearing mice", "assay_type": "in vivo, athymic nude mice", "settings": "for weight of normal nude mice during QST treatment: QST 10 mg/kg, individual mice"}},
  "note": "Several values for one entry are separate records, joined by “and”; a condition that tells them apart may be missing. Equal entries are not always repeated.",
  "data": [
    {"smiles": "Cn1cc(CNCC2CCN(c3ncc(C(=O)NO)cn3)CC2)c2ccccc21", "note": "[QST, quisinostat]", "values": [
      {"measurement": "H3K9/14ac levels normalized to B-actin", "setting": "[1]; QST + IR", "value": "7.331 fold change and 7.39 fold change and 6.951 fold change"},
      {"measurement": "H3K27ac levels normalized to B-actin", "setting": "[1]; QST + IR", "value": "1.842 fold change and 4.36 fold change and 3.819 fold change"},
      {"measurement": "H3K9/14ac levels normalized to B-actin", "setting": "[1]; QST", "value": "5.4 fold change and 6.4803 fold change and 5.818 fold change"},
      {"measurement": "H3K27ac levels normalized to B-actin", "setting": "[1]; QST", "value": "4.65 fold change and 3.97 fold change and 2.306 fold change"},
      {"measurement": "%stability", "setting": "[2]; mouse plasma with 0.25mM BNPP, time 0", "value": "107.9% and 91.2% and 100.9%"},
      {"measurement": "%stability", "setting": "[2]; mouse plasma with 0.25mM BNPP, time 0, mean", "value": 100.0, "unit": "%"},
      {"measurement": "%stability", "setting": "[2]; mouse plasma with 0.25mM BNPP, time 2", "value": "64.6% and 83.0% and 82.7%"},
      {"measurement": "%stability", "setting": "[2]; mouse plasma with 0.25mM BNPP, time 2, mean", "value": 76.8, "unit": "%"},
      {"measurement": "%stability", "setting": "[2]; mouse plasma with 0.25mM BNPP, time 8", "value": "61.2% and 65.8% and 67.9%"},
      {"measurement": "%stability", "setting": "[2]; mouse plasma with 0.25mM BNPP, time 8, mean", "value": 65.0, "unit": "%"},
      {"measurement": "%stability", "setting": "[2]; mouse plasma with 0.25mM BNPP, time 16", "value": "53.0% and 52.9% and 53.7%"},
      {"measurement": "%stability", "setting": "[2]; mouse plasma with 0.25mM BNPP, time 16, mean", "value": 53.2, "unit": "%"},
      {"measurement": "%stability", "setting": "[2]; mouse plasma with 0.25mM BNPP, time 24", "value": "47.9% and 55.7% and 51.9%"},
      {"measurement": "%stability", "setting": "[2]; mouse plasma with 0.25mM BNPP, time 24, mean", "value": 51.8, "unit": "%"},
      {"measurement": "%stability", "setting": "[2]; mouse plasma with 1mM DTNB, time 0", "value": "107.9% and 91.2% and 100.9%"},
      {"measurement": "%stability", "setting": "[2]; mouse plasma with 1mM DTNB, time 0, mean", "value": 100.0, "unit": "%"},
      {"measurement": "%stability", "setting": "[2]; mouse plasma with 1mM DTNB, time 2", "value": "20.7% and 19.1% and 20.9%"},
      {"measurement": "%stability", "setting": "[2]; mouse plasma with 1mM DTNB, time 2, mean", "value": 20.2, "unit": "%"},
      {"measurement": "%stability", "setting": "[2]; mouse plasma with 1mM DTNB, time 8", "value": "0.277% and 0.7%"},
      {"measurement": "%stability", "setting": "[2]; mouse plasma with 1mM DTNB, time 8, mean", "value": 0.5, "unit": "%"},
      {"measurement": "%stability", "setting": "[2]; mouse plasma with 1mM DTNB, time 16", "value": "0.6% and 0.5%"},
      {"measurement": "%stability", "setting": "[2]; mouse plasma with 1mM DTNB, time 16, mean", "value": 0.545, "unit": "%"},
      {"measurement": "%stability", "setting": "[2]; mouse plasma with 1mM DTNB, time 24", "value": "0.7% and 0.6% and 0.25%"},
      {"measurement": "%stability", "setting": "[2]; mouse plasma with 1mM DTNB, time 24, mean", "value": 0.5, "unit": "%"},
      {"measurement": "%stability", "setting": "[2]; mouse plasma with 1.25mM PMFS, time 0", "value": "107.9% and 91.2% and 100.9%"},
      {"measurement": "%stability", "setting": "[2]; mouse plasma with 1.25mM PMFS, time 0, mean", "value": 100.0, "unit": "%"},
      {"measurement": "%stability", "setting": "[2]; mouse plasma with 1.25mM PMFS, time 2", "value": "61.9% and 64.2% and 59.2%"},
      {"measurement": "%stability", "setting": "[2]; mouse plasma with 1.25mM PMFS, time 2, mean", "value": 61.8, "unit": "%"},
      {"measurement": "%stability", "setting": "[2]; mouse plasma with 1.25mM PMFS, time 8", "value": "26.3% and 24.6% and 23.5%"},
      {"measurement": "%stability", "setting": "[2]; mouse plasma with 1.25mM PMFS, time 8, mean", "value": 24.8, "unit": "%"},
      {"measurement": "%stability", "setting": "[2]; mouse plasma with 1.25mM PMFS, time 16", "value": "6.1% and 5.9% and 7.1%"},
      {"measurement": "%stability", "setting": "[2]; mouse plasma with 1.25mM PMFS, time 16, mean", "value": 6.4, "unit": "%"},
      {"measurement": "%stability", "setting": "[2]; mouse plasma with 1.25mM PMFS, time 24", "value": "4.3% and 3.8%"},
      {"measurement": "%stability", "setting": "[2]; mouse plasma with 1.25mM PMFS, time 24, mean", "value": 4.0, "unit": "%"},
      {"measurement": "tolerability (weight loss)", "setting": "[3]; 10 mg/kg IP MWF for 2 weeks, non-tumor-bearing athymic nude mice", "value": "well tolerated"},
      {"measurement": "weight of normal nude mice during QST treatment", "setting": "[3]; treatment day 1", "value": "28.1 g (2×) and 28.4 g and 26.7 g and 26.2 g and 20.2 g"},
      {"measurement": "weight of normal nude mice during QST treatment", "setting": "[3]; treatment day 2", "value": "27.9 g and 27.4 g and 26 g and 26.7 g and 20.4 g and 27.5 g"},
      {"measurement": "weight of normal nude mice during QST treatment", "setting": "[3]; treatment day 3", "value": "27.4 g and 27.9 g and 25.6 g and 27.2 g and 20.3 g and 27.8 g"},
      {"measurement": "weight of normal nude mice during QST treatment", "setting": "[3]; treatment day 4", "value": "28.1 g and 27.7 g and 25.7 g and 27 g (2×) and 20.8 g"},
      {"measurement": "weight of normal nude mice during QST treatment", "setting": "[3]; treatment day 5", "value": "27.5 g and 27.4 g and 26.5 g and 27.1 g (2×) and 20.3 g"},
      {"measurement": "weight of normal nude mice during QST treatment", "setting": "[3]; treatment day 6", "value": "27.4 g and 27 g and 26.9 g and 27.2 g and 20.2 g and 27.1 g"}
    ]}
  ]
}
